Assay results from article PMC5809120 (Journal of the American Chemical Society, 2018).

T1: PtNTT2(66-575) (Phaeodactylum tricornutum, UniProt B7FWL8)
T1 sequence (B7FWL8 66-575): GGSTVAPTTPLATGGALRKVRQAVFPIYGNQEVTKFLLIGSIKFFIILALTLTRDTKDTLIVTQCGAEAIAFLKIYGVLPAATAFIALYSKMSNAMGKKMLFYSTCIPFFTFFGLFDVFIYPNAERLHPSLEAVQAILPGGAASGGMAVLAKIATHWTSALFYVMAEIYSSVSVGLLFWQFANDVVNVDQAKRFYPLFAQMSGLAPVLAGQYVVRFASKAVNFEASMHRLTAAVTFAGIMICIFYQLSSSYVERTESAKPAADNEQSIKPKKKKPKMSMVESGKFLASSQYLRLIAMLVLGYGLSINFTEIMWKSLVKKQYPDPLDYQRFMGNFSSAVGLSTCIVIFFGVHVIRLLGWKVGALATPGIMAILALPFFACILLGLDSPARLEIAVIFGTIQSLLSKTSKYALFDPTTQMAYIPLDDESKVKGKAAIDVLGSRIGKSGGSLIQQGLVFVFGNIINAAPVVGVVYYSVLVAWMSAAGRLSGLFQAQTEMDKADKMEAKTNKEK


Columns and labels:
PtNTT2(66-575) = molecular target: T1, PtNTT2(66-575); assay: inhibition of [α-32P]ATP uptake into E. coli YZ2 cells; assay type: cell-based; conditions: read-out: % inhibition at 500 μM
[1] = substrate: Nc1ncnc2c1ncn2[C@@H]1O[C@H](COP(=O)(O)OP(=O)(O)OP(=O)(O)O)[C@@H](O)[C@H]1O; assay: radiolabelled uptake into E. coli YZ2 cells, filter assay; assay type: cell-based, Phaeodactylum tricornutum; conditions: whole-cell uptake; labelled compound ([α-32P]ATP)

inhibition at 500 µM (PtNTT2(66-575)) [%]	Molecule	Km [1] [µM]
73.6 ± 1.8	Nc1nc(=O)n([C@H]2C[C@H](O)[C@@H](COP(=O)(O)OP(=O)(O)OP(=O)(O)O)O2)cc1I [5-IdCTP]	
56.9 ± 12	Cc1cn([C@H]2C[C@H](N=[N+]=[N-])[C@@H](COP(=O)(O)OP(=O)(O)OP(=O)(O)O)O2)c(=O)[nH]c1=O [AZTTP]	
76.3 ± 2.8	Nc1ccn([C@H]2C[C@H](O)[C@@H](COP(=O)(O)OP(=O)(O)OP(=O)(O)O)O2)c(=O)n1 [dCTP]	
96.6 ± 1.3	Nc1nc(=O)n([C@@H]2O[C@H](COP(=O)(O)OP(=O)(O)OP(=O)(O)O)[C@@H](O)[C@H]2O)cc1I [5-ICTP]	
55.3 ± 3.6	Nc1nc2c(ncn2[C@H]2C[C@H](O)[C@@H](COP(=O)(O)OP(=O)(O)OP(=O)(O)O)O2)c(=O)[nH]1 [dGTP]	
60.4 ± 1.4	Nc1nc2c(ncn2[C@@H]2O[C@H](COP(=O)(O)OP(=O)(O)OP(=O)(O)O)[C@@H](O)[C@H]2O)c(=O)[nH]1 [GTP]	

The remaining lines, values behind:

Molecule	inhibition at 500 µM (PtNTT2(66-575)) [%]	Km [1] [µM]
Nc1ccn([C@@H]2O[C@H](COP(=O)(O)OP(=O)(O)OP(=O)(O)O)[C@@H](O)[C@@H]2O)c(=O)n1 [Ara-CTP]	81.3 ± 5.2	
Nc1nc(=O)n([C@@H]2O[C@H](COP(=O)(O)OP(=O)(O)OP(=O)(O)O)[C@@H](O)[C@H]2O)cc1CO [5-hmCTP]	76.3 ± 2.9	
Nc1nc2c(ncn2[C@@H]2O[C@H](COP(=O)(O)OP(=O)(O)OP(=O)(O)O)[C@@H](O)[C@@H]2O)c(=O)[nH]1 [Ara-GTP]	47.8 ± 7.9	
Nc1ccn([C@@H]2O[C@H](COP(=O)(O)OP(=O)(O)OP(=O)(O)O)[C@@H](O)[C@H]2O)c(=O)n1 [CTP]	70.5 ± 4.9	
Nc1nc2c(ncn2COCCOP(=O)(O)OP(=O)(O)OP(=O)(O)O)c(=O)[nH]1 [ACVTP]	68.6 ± 5.5	
PtNTT2(66-575) (Phaeodactylum tricornutum CCAP 1055/1) (protein) GGSTVAPTTPLATGGALRKVRQAVFPIYGNQEVTKFLLIGSIKFFIILALTLTRDTKDTLIVTQCGAEAIAFLKIYGVLPAATAFIALYSKMSNAMGKKMLFYSTCIPFFTFFGLFDVFIYPNAERLHPSLEAVQAILPGGAASGGMAVLAKIATHWTSALFYVMAEIYSSVSVGLLFWQFANDVVNVDQAKRFYPLFAQMSGLAPVLAGQYVVRFASKAVNFEASMHRLTAAVTFAGIMICIFYQLSSSYVERTESAKPAADNEQSIKPKKKKPKMSMVESGKFLASSQYLRLIAMLVLGYGLSINFTEIMWKSLVKKQYPDPLDYQRFMGNFSSAVGLSTCIVIFFGVHVIRLLGWKVGALATPGIMAILALPFFACILLGLDSPARLEIAVIFGTIQSLLSKTSKYALFDPTTQMAYIPLDDESKVKGKAAIDVLGSRIGKSGGSLIQQGLVFVFGNIINAAPVVGVVYYSVLVAWMSAAGRLSGLFQAQTEMDKADKMEAKTNKEK		186.0 ± 21.1
